Experimental data: PubChem BioAssay (NCI)
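Test compounds were applied to cells in 96-well plates for 48 hours at 5 doses. At the GI50, growth is halved. TGI marks complete inhibition of growth.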 *1 amine or outer side, *2 acyl side, *3 side chain or, on linkers, in order; H or OH if unused. Where a SMILES comes first, the peptide text is derived from it. [ ]: non-standard residue; d: D form. ξ: configuration not given here. X21 = CC[C@@H](C)C(N[*:1])C(=O)[*:2]; ξR = N=C(N)NCCCC(N)C(=O)O; ξI = CCC(C)C(N)C(=O)O; ξL = CC(C)CC(N)C(=O)O; ξK = NCCCCC(N)C(=O)O; ξV = CC(C)C(N)C(=O)O; ξA = CC(N)C(=O)O

System: MDA-MB-468 breast
Assay: NCI-60 cell line screen, 48 h

Compound | GI50 [µM] | TGI [µM]
C=C1C(=O)O[C@H]2[C@H]1CC/C(Cn1cc(-c3cc(C)c(C)cc3C)nn1)=C\CC[C@@]1(C)O[C@@H]21 | 0.53 | 2.06
Cc1cc2cn3c4cccnc4[nH]c(=O)c3c2cc1C | 1.39 | 2.83
Cc1[nH]nc2c1N=C(c1ccccc1Cl)c1cc([N+](=O)[O-])ccc1N2 | 0.242 | > 16.8
O=C(Nc1cccc(-n2cc(-c3ccncc3)c(-c3ccc(O)c(Cl)c3)n2)c1)Nc1cccc(C(F)(F)F)c1 | 1.85 | 6.17
CCNCCCn1c2c(c3ccc([N+](=O)[O-])cc3c1=O)C(=O)c1cc(OC)cnc1-2 | 0.0416 | 0.21
N#C/C(=C\c1ccc(Br)cc1)n1nnc2ccccc21 | 0.566 | 2.22
C=C1C(=O)O[C@H]2[C@H]1CC/C(COC(=O)c1ccccc1)=C\CC[C@@]1(C)O[C@@H]21 | 0.464 | 2.59
Cn1c(=O)c(Oc2ccccc2)cc2cnc(NC3CCOCC3)nc21 | > 25 | > 25
C[C@H](N)C(=O)N1C[C@H](CCCB(O)O)[C@](N)(C(=O)O)C1 | > 100 | > 100
COc1ccc2c(c1)/C(=C/c1cc(OC)c(OC)c(OC)c1)C(=O)N2C | 14.6 | > 100
NC(=O)c1ccc2nc3c(n2c1)C(=O)C(=O)c1ccccc1-3 | 0.587 | 1.92
Cc1cn(-c2cc(NC(=O)c3cncc(C#Cc4cnc5ccc(O[C@@H]6CCOC6)nn45)c3)cc(C(F)(F)F)c2)cn1 | 0.0998 | 0.432
C#C[C@]1(O)CC[C@H]2[C@@H]3CC=C4c5sc(N6CCN(C)CC6)nc5CC[C@]4(C)[C@H]3CC[C@@]21C | 2.26 | 7.6
OCc1ccc(N(CCN2CCCC2)Cc2ccc(F)cc2)cc1Cl | 1.2 | 3.28
COc1ccc2c(c1)C1(C(=O)N2)C(C#N)=C(c2ccccc2)Nc2c1c(-c1ccccc1)nn2-c1ccccc1 (centres undefined) | 2.93 | 9.05
Nc1ccccc1NC(=O)c1ccc(NC(=O)C/C=C/c2cccnc2)cn1 | 0.982 | 13.3
Clc1ccc(Nc2ccnc(NCCCNc3ccnc4cc(Cl)ccc34)n2)cc1 | 1.49 | 3.05
CCC(C)C1NC(=O)C(CC(C)C)NC(=O)C(C)NC(=O)C(C(C)C)NC(=O)C(CCCCN)NC(=O)C(CC(C)C)NC(=O)C(C(C)C)NC(=O)[C@H](C)NC(=O)C(C(C)CC)NC(=O)C(CCCN=C(N)N)NC(=O)C(CCCCN)NC(=O)C(CCCN=C(N)N)NC(=O)C(CCCCN)NC(=O)C([C@H](C)CC)NC(=O)C(CCCCN)NC1=O (some centres undefined) (cyclo(A[ξV][ξL][ξK][ξV][ξA][ξL][ξI][ξK][X21][ξK][ξR][ξK][ξR][ξI])) | 0.361 | 1.42
CCOC(=O)c1cc(C(=O)c2cc(OC)c(OC)c(OC)c2)n2ccccc12 | 0.0939 | 89.6

Compound | GI50 [µM] | TGI [µM]
COc1ccc(-c2csc(NC(=O)c3cc(O)c(O)c(O)c3)n2)cc1 | 6.94 | 29.5
COc1cc(OC)c(C(=O)/C=C/c2cccc(OC(C)=O)c2)cc1CC=C(C)C | 1.89 | 9.72
C=C1C[C@@]2(C)C(CC[C@]3(C)C2CC=C2C4CC(C)(C)C[C@@H](OC(=O)/C(C)=C\C)[C@]4(C(=O)O)CC[C@]23C)C(C)(C)C1=O (some centres undefined) | 2.02 | 5.91
Nc1ncnc2c1cnn2Cc1ccc(Cl)cc1 | 44.7 | > 100
NC1CCC(N[C@@H]2C[C@H]2c2ccccc2)CC1 (some centres undefined) | > 100 | > 100
NC1=Nc2cc(OCCCN3Cc4ccccc4C3)c(OCC3CC3)cc2C12CCCC2 | 1.04 | 2.48
CCOC(=O)Nc1nc2c(C)cccc2s1 | 28.7 | > 100
CN(C)CCCn1c2nc(=O)[nH]c(=O)c-2nc2cc(Cl)c(Cl)cc21 | 0.772 | 2.13
CCCN(CCSSCCNc1nc(N(C)O)nc(N(C)O)n1)c1nc(N(C)O)nc(N(C)O)n1 | 2.15 | 8.86
Cc1ccc(Sc2sc(-c3ccccc3)nc2[P+](c2ccccc2)(c2ccccc2)c2ccccc2)cc1 | 0.222 | 0.674
O=C(COc1cccc(/C=C2\CSc3ccccc3C2=O)c1)c1ccc(Cl)cc1 | 1.5 | 3.45
CN1CCN(c2ccc(C(=O)Nc3cc(-c4cccc(NS(=O)(=O)c5ccccc5)c4)[nH]n3)cc2)CC1 | 4.84 | 14
Oc1ccc(C#CCOc2ccccc2)cc1CNCCN(Cc1ccccn1)Cc1ccccn1 | 1.73 | 4.17
CCSc1nnc(-c2ccc3ccccc3c2O)n1-c1ccc(Cl)cc1 | 3.59 | > 100
CNCCCNCCCN1C(=O)c2ccc3c4c(ccc(c24)C1=O)C(=O)N(CCCNCc1ccccc1OC)C3=O | 1 | 2.77
CC(C)Nc1ncc2cc(Oc3ccc(F)cc3F)c(=O)n(C)c2n1 | > 23 | > 25
COc1ccccc1/C=C/C(=O)/C=C/c1ccccc1OC | 1.27 | 2.67
O=C(Nc1ccccc1)Nc1cccc(Oc2nnc(Cl)c3ccccc23)c1 | 1.68 | 7.58
